By melting point is commonly meant the temperature of the solid-liquid transition.

Take `Cn1c(=S)n(C)c(=O)n(-c2c(F)cc(Cl)c3ncoc23)c1=O`: the melting point fell in the range of 209 to 211 °C.

Compound `NCC(O)c1ccc(C(F)(F)F)cc1` (configuration not stated) showed a melting point of 138 to 140 °C.

For `Cc1cc(Oc2ncc(C(F)(F)F)cc2Cl)nn1C(=O)Nc1cccc(C(F)(F)F)c1`, the melting point is 123 to 124 °C.

The compound `CS(=O)c1cc(-c2ccc(C(F)(F)F)cc2)ccc1C#N` (configuration not stated) displayed a melting point of 127 to 128 °C.

As to `CCC(CC)Nc1cc(C)nc(Nc2c(C)cc(C)cc2C)c1CC(C(=O)OC)C(=O)OC`, the melting point fell in the range of 136 to 138 °C.

Regarding `Oc1cc(OCCCCCCCCCCOc2ccc(C(=S)c3ccc(-c4ccccc4)cc3)c(O)c2)ccc1C(=S)c1ccc(-c2ccccc2)cc1`, the melting point was in the range of 125 to 127 °C.

Consider `CC1CCC(=NNc2ccccc2)c2ncc(C(=O)NN)c(=O)n21` (configuration not stated), for which the melting point is 205 to 207 °C.

`COc1cc(OC)c(C23CC4CC(CC(C4)C2)C3)cc1C(=O)O` showed a melting point of 213 to 214 °C.

The compound `CCSc1ccc2c(c1)CCN2C(=O)Nc1cccnc1` registered a melting point of 150 to 151 °C.

`Cc1cc(Cn2nc(C(F)(F)F)cc2C(F)(F)F)ccc1NC(=O)c1cccc(I)c1C(=O)NC(C)(C)CS(C)(=O)=O` gave a melting point of 104 to 107 °C.

With `COc1ccc(NCCCCNC(C)=O)c2c1C(=O)c1ccccc1C2=O`, the melting point fell in the range of 151 to 153 °C.

Turning to `O=C(c1ccc(OCCN2CCCCC2)cc1)c1c(-c2ccc(O)cc2)ccc2ccccc12`, the melting point lay in the range of 167 to 170 °C.

The compound `O=C(O)c1ccccc1COc1ccccc1Br` yielded a melting point of 175 to 177 °C.

With `O=C(CCc1nnc(Nc2ccccc2Cl)o1)NC1CCN(Cc2ccc(F)c(F)c2)CC1`, the melting point lay within 162 to 163 °C.

With `COc1ccc(-c2cn(C)cc(-c3ccc(OC)c(OC)c3)c2=O)cc1OC`, the melting point lay within 182 to 184 °C.

Consider `C/C=C/c1cc2c(s1)[C@@H](OC(C)=O)[C@H](OC(C)=O)C[C@]2(OC(C)=O)C(=O)OC`, for which the melting point was in the range of 140 to 143 °C.

With `COC(=O)C1CC(=O)N(Cc2ccccc2)C1c1c(Cl)cccc1Cl` (configuration not stated), the melting point was in the range of 97 to 102 °C.

In turn, `O=C(Nc1cnccn1)c1cn(-c2ccccc2)c2ccccc2c1=O` yielded a melting point of 298 to 300 °C.

Turning to `COC1=C(OC)C(=O)C2=C(CCC(CC(=O)O)CC2)C1=O`, the melting point was in the range of 130 to 132 °C.

In turn, `CN1CCN(Cc2cccc(-c3ccc(-c4cn([C@H]5CN6CCC5CC6)nn4)s3)c2)CC1` had a melting point of 155 °C.

The compound `CN1C(=O)CN(C(=O)N2CC(=O)N(C)c3ccc(Cl)cc3C2c2ccccc2)C(c2ccccc2)c2cc(Cl)ccc21` (configuration not stated) yielded a melting point of 263 to 266 °C.

`Cc1nc(N2CCN(Cc3ccc(C(F)(F)F)cc3)C2=O)sc1C(N)=O` yielded a melting point of 216 to 217 °C.

`COc1cc(CCCCC2OC(=O)NC2=O)ccc1OCc1csc(/C=C/c2ccccc2)n1` (configuration not stated): the melting point lay in the range of 167 to 168 °C.

In turn, `C=C(C)C(=O)OCCCCCCCCCCCOC(=O)c1cc(OC(=O)c2ccc(/C=C/C(=O)OC)cc2)ccc1O` showed a melting point of 51 °C.

Regarding `O=C(c1cccc2c1NCC2)N1CCN(c2cccc(C(F)(F)F)c2)CC1`, the melting point fell in the range of 115 to 118 °C.

Consider `Cc1noc(NS(=O)(=O)c2ccsc2C(=O)Nc2ccc(C(C)(C)C)cc2)c1Br`, for which the melting point was 76 to 86 °C.

As to `O=C(O)/C=C\C(=O)Nc1ccc2c(=O)n3c(nc2c1)C(=Cc1ccccc1)CC3`, the melting point was in the range of 210 to 230 °C.

Turning to `CC1=C(C(=O)c2ccc(C(=O)NCCC#N)cc2)C(=O)C2C=CC=CC2C1=O` (configuration not stated), the melting point lay in the range of 172 to 173 °C.

In turn, `c1cncc(-c2noc(-c3ccco3)n2)c1` came in with a melting point of 110 to 114 °C.

As to `C=C(F)c1c(C(=O)OC)nc(Cl)c(F)c1N`, the melting point was in the range of 98 to 100 °C.

`COP(=O)(OC)C(C)C(NC(=O)OCc1ccccc1)C(=O)N[C@@H](Cc1ccccc1)[C@H](O)C(=O)N1C[C@@H](Cl)C[C@H]1C(=O)NC(C)(C)C` (some centres not stated) yielded a melting point of 93 to 100 °C.

Turning to `NC1CCc2[nH]c3ccccc3c2C1` (configuration not stated), the melting point was in the range of 160 to 166 °C.

As for `CC1(C)CC(=O)Nc2cc3nc(-c4ccc(-n5ccnc5)cc4)[nH]c3cc21`, the melting point is more than 300 °C.

`CC(=O)c1cccc(C2=C(c3ccc(S(C)(=O)=O)cc3)OC(C)(C)C2=O)c1` gave a melting point of 189 to 190 °C.

Consider `O=[N+]([O-])c1ccc2[nH]cc(Cc3ccc(F)cc3)c2c1`, for which the melting point was 142 to 144 °C.

In turn, `CCOCc1nc2c(N)nc3ccc(OCc4ccccc4)cc3c2n1CCCCNC(=O)N1CCOCC1` returned a melting point of 150 to 153 °C.

The compound `NC(=O)NN=Cc1ccc(Oc2ccc([N+](=O)[O-])cc2)cc1` showed a melting point of 221 to 222 °C.

Consider `COC(=O)c1oc2ccc(OC)cc2c1OC(C)C`, for which the melting point lay in the range of 55 to 63 °C.

The compound `CCOC(=O)C(C)Cc1ccnc(-c2nc(=O)c3ccccc3s2)c1` (configuration not stated) showed a melting point of 120 to 121 °C.

`Cc1cc(C)cc(NCc2ccc3nc(NCCCN4CC(C)OC(C)C4)n(Cc4nc(C)ccc4O)c3c2)c1` (configuration not stated) had a melting point of 192 °C.

For the compound `OC(CCl)CN(CC(O)CCl)c1ccccc1` (configuration not stated), the melting point stood at 60 °C.

`Cc1ccc(C(=O)c2cc(Br)c(CC(=O)O)n2C)cc1` returned a melting point of 162 to 164 °C.

As for `CCCCOc1c(CNC(=O)OC(C)(C)C)n(CC(C)C)c(=O)c2ccc(-c3nc(C)c(C(=O)O)s3)cc12`, the melting point fell in the range of 107 to 109 °C.

For the compound `CCCc1nc2c(N)nc3cc(Br)ccc3c2s1`, the melting point was in the range of 160 to 163 °C.

With `Cc1c(CP(=O)(OCCCl)OCCCl)cc(C(C)(C)C)c(O)c1C`, the melting point was in the range of 133 to 135 °C.

In turn, `O=C(CCc1cnoc1-c1ccccc1)Nc1ccc(-n2ccnc2)cc1` returned a melting point of 176 to 177 °C.

`Cc1cc(C(=O)CCCC(=O)c2cc(C)c(O)c(C(C)(C)C)c2)cc(C(C)(C)C)c1O` gave a melting point of 156 to 158 °C.

Regarding `O=C1c2ccccc2C(=O)c2sc(-c3cccc(F)c3)nc21`, the melting point was more than 260 °C.

Compound `CCOC(=O)NCC(=O)O` gave a melting point of 55 to 58 °C.

Consider `Cc1ccc2nc(SCC(=O)O)oc2c1`, for which the melting point lay within 144 to 146 °C.

`Cc1cc(C)cc(NC(=N)Nc2ccccc2C(F)(F)F)c1` displayed a melting point of 127 °C.

In turn, `COc1ccc(C(=S)Nc2ccccc2OC)cc1` registered a melting point of 84.5 to 86.5 °C.

In the case of `C#CC1(O)CCC2(C)C(CCC3C2CCC2(C)C(OC)CCC32)C1` (configuration not stated), the melting point fell in the range of 62 to 65 °C.

Compound `O=C(CCCO)Nc1cccc(/C=C/c2nc3ccccc3s2)c1` yielded a melting point of 191 to 192 °C.

Compound `NCCNc1cc(Cl)cc(NCCN)c1[N+](=O)[O-]` showed a melting point of 113 °C.

In turn, `c1ccc(CC[C@H]2CNCCN2)nc1` yielded a melting point of 83 to 87 °C.

Turning to `CC(C)c1cc(C(C)(C)C)cc(Br)c1OCc1ccccc1`, the melting point was 47 to 49 °C.

Take `Cc1nn(CCO)c(C)c1S(=O)(=O)c1cc(Cl)cc(Cl)c1`: the melting point lay in the range of 199 to 200 °C.

Turning to `CCOCc1nc(C(C)(C)O)c(C(=O)OCc2oc(=O)oc2C)n1Cc1ccc(-c2ccccc2-c2nnn[nH]2)cc1`, the melting point was 166 to 168 °C.

As to `CCCc1nc(CC)c(C=O)n1Cc1ccc(-c2ccccc2-c2c(O)c(=O)c2=O)cc1`, the melting point fell in the range of 241 to 245 °C.

`CCCCc1nc2ccc(C(=O)O)cc2n1Cc1ccc(C(=O)O)cc1`: the melting point came to 290 °C.

`CNS(=O)(=O)c1cc2c(c(C(=O)O)c1)OCCO2` returned a melting point of 208 to 209 °C.

For the compound `CC(=O)NC[C@H]1CN(c2ccc(-n3nccc3-c3ccc(Br)cn3)c(F)c2)C(=O)O1`, the melting point fell in the range of 92.7 to 95.4 °C.

`O=C1C(=O)c2ccc(-c3ccccc3)cc2C2=C1SCC1(CCN(CC(O)COc3ccc(F)cc3)CC1)O2` (configuration not stated) returned a melting point of 173 to 175 °C.

The compound `O=C(/C=C/[C@@H]1[C@H]2CC(=O)O[C@H]2C[C@H]1OC(=O)c1ccccc1)CCc1ccccc1` registered a melting point of 119 to 120 °C.

In the case of `CN(C=C(C#N)C#N)c1ccc(O)cc1`, the melting point was 187 to 189 °C.

On to `C[C@@H](CO)Oc1ccc(-c2ccccc2)cc1`, for which the melting point is 75 to 78 °C.

In turn, `CN1Cc2c(I)ncn2-c2ccc(F)c(Cl)c2C1=O` gave a melting point of 218 to 219 °C.

Consider `Sc1nc(-c2ccc(Cl)c(Cl)c2)c(-c2cccs2)[nH]1`, for which the melting point lay within 263 to 265 °C.

For the compound `COc1cc(NC(=O)C2C(=O)N(C)C(=O)N(C)C2=O)ccc1Oc1nnc(C(C)(C)C)s1`, the melting point is 178 to 179 °C.

Consider `COc1ccc(-c2nc(C(=O)c3ccc(N)c(C(=O)O)c3)n3ccccc23)cc1`, for which the melting point was 296 °C.

The compound `COc1cc(Cc2cnc(N)nc2N)c2c(c1OC)OC(C)CC2=O` (configuration not stated) had a melting point of 128 to 132 °C.

`NC(=O)c1ccc2c(c1)S(=O)(=O)c1ccccc1C2=O` displayed a melting point of 282 to 283 °C.

With `COc1cc(C(O)(C(F)(F)F)C(F)(F)F)cc(Br)c1N(S(C)(=O)=O)S(C)(=O)=O`, the melting point worked out at 193 °C.

Regarding `c1ccc(CCn2ncc3c2ncn2nc(-c4ccco4)nc32)cc1`, the melting point was in the range of 174 to 175 °C.

`CCOC(=O)Cc1ccc(-c2nc(COc3ccc(C=O)cc3OC)c(C)o2)cc1` displayed a melting point of 151 to 152 °C.

The compound `Cc1nc2c3c(c(C(N)=O)cc2n1C)CCC(c1ccccc1)N3` (configuration not stated) had a melting point of 311 to 319 °C.

In the case of `Cc1cccc(-n2nc(C)cc2-c2cc[nH]c(=O)c2)c1`, the melting point is 182 to 183 °C.

In turn, `Brc1cccc(-c2cc(-c3cccc(Br)c3)on2)c1` showed a melting point of 155 to 156 °C.

The compound `COC(=O)Nc1cc(C)c(Br)cc1I` displayed a melting point of 140 to 141 °C.

`CC(C)NCC(=O)N1c2ccccc2N(C)S(=O)(=O)c2ccccc21` gave a melting point of 115 to 117 °C.

On to `C=CCc1cc2c(cc1O)CCC(=O)N2CC=Cc1ccccc1`, for which the melting point fell in the range of 199 to 203 °C.

With `CNC1=NN(c2cccc(Cl)c2)CC1C` (configuration not stated), the melting point fell in the range of 75 to 76 °C.

For the compound `Cc1ccc([N+](=O)[O-])c(O)c1CCC(C)Br` (configuration not stated), the melting point is 67 to 69 °C.

For `COC(=O)CCn1c(=O)n(CCN2CCN(c3ccc(OC)cc3)CC2)c(=O)c2cscc21`, the melting point is 151 to 152 °C.

Compound `CN(C)C1(c2ccccc2)CCC(=O)CC1` came in with a melting point of 104 to 108 °C.

Compound `COCOc1cc(F)ccc1-c1cc(-c2cccc(C(=O)OC)c2)c(C#N)c(N)n1` yielded a melting point of 155 to 158 °C.

Source of the values: a melting point compilation (Tetko et al.; mined from patent text by program, amines drawn as free bases though some values may be those of a salt).
